Biological target: Vasopressin V1a receptor (Homo sapiens, UniProt P37288)
Assay: competition binding assay: The human V1a receptor was cloned by RT-PCR from total human liver RNA. The coding sequence was subcloned in an expression vector after sequencing to confirm the identity of the amplified sequence. […] Cell membranes were prepared from HEK293 cells transiently transfected with the expression vector and grown in 20 liter fermenters with the following protocol.50 g of cells are re-suspended in 30 ml freshly prepared ice cold Lysis buffer (50 mM HEPES, 1 mM EDTA, 10 mM MgCl2 adjusted to pH=7.4+complete cocktail of protease inhibitor (Roche Diagnostics)). Homogenized with Polytron for 1 min and sonicated on ice for 2×2 minutes at 80% intensity (Vibracell sonicator). The preparation is centrifuged 20 min at 500 g at 4° C., the pellet is discarded and the supernatant centrifuged 1 hour at 43,000 g at 4° C. (19,000 rpm). The pellet is re-suspended in 12.5 ml Lysis buffer+12.5 ml Sucrose 20% and homogenized using a Polytron for 1-2 min. The protein concentration is determined by the Bradford method and aliquots are stored at −80° C. until use. For binding studies 60 mg Yttrium silicate SPA beads (Amersham) are mixed with an aliquot of membrane in binding buffer (50 mM Tris, 120 mM NaCl, 5 mM KCl, 2 mM CaCl2, 10 mM MgCl2) for 15 minutes with mixing. […]

Vasopressin V1a receptor, sequence (P37288 whole entry): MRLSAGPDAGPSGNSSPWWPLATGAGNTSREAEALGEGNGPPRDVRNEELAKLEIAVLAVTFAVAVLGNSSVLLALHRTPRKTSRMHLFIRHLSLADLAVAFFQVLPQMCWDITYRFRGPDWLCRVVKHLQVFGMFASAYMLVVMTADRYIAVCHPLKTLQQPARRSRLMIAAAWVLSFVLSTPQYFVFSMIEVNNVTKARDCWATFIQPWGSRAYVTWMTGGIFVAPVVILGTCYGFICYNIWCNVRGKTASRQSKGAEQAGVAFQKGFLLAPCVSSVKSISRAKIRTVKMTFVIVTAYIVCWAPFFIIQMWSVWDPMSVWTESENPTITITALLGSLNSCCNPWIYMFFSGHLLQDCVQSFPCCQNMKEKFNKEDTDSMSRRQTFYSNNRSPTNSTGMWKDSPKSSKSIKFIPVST

C/C(=C1/SC(N2CCC3(CC2)OCc2ccccc23)=NC1=O)c1nccs1
Ki: 1 nM

C/C(=C1\SC(N2CCC3(CC2)OCc2ccccc23)=NC1=O)c1ccc(Cl)nc1
Ki: 3.16 nM

— ChEMBL document CHEMBL5725746, “Spiro-thiazolones” (2018)
